Patent US20250145631A1, “HETEROCYCLIC COMPOUND ACTING ON G12D MUTANT KRAS PROTEIN” (Astellas Pharma Inc., priority 2022, published 2025)

How the values were obtained:
Type in all cases: cell-based
[1] = target: T1, KRAS G12D (Homo sapiens, UniProt P01116, G12D); experiment: KRAS degradation activity by Cell ELISA in AsPC-1 cells (Test Example 1); conditions: Cell ELISA; for Dmax: ASPC1, overnight treatment, read-out: Dmax (degradation rate at the concentration showing highest degradation); for DC50: overnight treatment, read-out: DC50 (50% degradation concentration of KRAS)
T1 construct: host or cells: AsPC-1 (human pancreatic cancer line)
In short: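 AsPC-1 cells (2.0×10^4/well) treated overnight with compounds at 10 μM–0.3 nM (10 points), then fixed, permeabilised and stained for KRAS G12D (800 nm) and β-actin (700 nm) by in-cell ELISA. KRAS signal normalised to β-actin, DMSO set as 0% and actin-only staining as 100%; DC50 from Sigmoid-Emax regression up to Dmax.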

[2] = tested on: phosphorylation of ERK (Thr202/Tyr204); experiment: ERK phosphorylation inhibitory effect by Cell ELISA in AsPC-1 cells (Test Example 2); conditions: Homo sapiens, ASPC1, overnight treatment, Cell ELISA, read-out: IC50 (ERK phosphorylation inhibition)
In short: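 AsPC-1 cells (2.0×10^4/well, RPMI 1640 + 10% FBS) treated overnight with compounds (10 points, 10 μM to 0.3 nM final), then glyoxal-fixed and immunostained for phospho-ERK with IRDye 800CW secondary; 800-nm fluorescence read. IC50 by Sigmoid-Emax regression, normalized to DMSO (100%) and 1 μM trametinib (0%).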

[3] = tested on: human G12D mutant KRAS-positive pancreatic cancer line AsPC-1; experiment: Non-anchorage-dependent cell growth inhibitory effect, spheroid 3D culture (Test Example 3); conditions: ASPC1, 144 h, AsPC-1 spheroid 3D culture, 6 days, CellTiter Glo 2.0, read-out: IC50 (non-anchorage-dependent cell growth inhibition)
In short: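 AsPC-1 cells grown as spheroids in RPMI 1640 with 10% FBS at 37° C, 5% CO2, then exposed to compounds (10 μM to 0.3 nM final) for 6 days. Viability read by CellTiter Glo 2.0 luminescence. IC50 from Sigmoid-Emax regression with DMSO as 100% and cell-free medium as 0%.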

T1 sequence (P01116 1-188 isoform P01116-2 G12D): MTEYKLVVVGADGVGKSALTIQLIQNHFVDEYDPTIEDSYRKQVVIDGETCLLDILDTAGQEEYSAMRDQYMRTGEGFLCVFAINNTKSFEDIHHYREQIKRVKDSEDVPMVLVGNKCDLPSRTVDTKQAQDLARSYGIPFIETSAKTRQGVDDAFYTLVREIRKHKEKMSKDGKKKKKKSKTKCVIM

| Dmax [1] | DC50 [1] | IC50 [2] | IC50 [3] | SMILES |
| --- | --- | --- | --- | --- |
| 78% | 52 nM | 90 nM | 155 nM | Cc1c(F)cc2[nH]ncc2c1-c1c(C2CC2)cc2c(N3C[C@@H]4C[C@H]3CN4)nc(O[C@H]3CCOC3)nc2c1OCc1ccc(C(=O)N2CCN(Cc3ccc4c(c3)n(C)c(=O)n4C3CCC(=O)NC3=O)C[C@@H]2C)cc1 (stereo partly drawn) [Example 41] |
| 90% | 9 nM | 13 nM | 33 nM | CO[C@@H](C)COc1nc(O[C@H]2CCNC2)c2cc(C3CC3)c(-c3c(C)c(F)cc4[nH]ncc34)c(OCc3ccc(C(=O)N4CCN(Cc5ccc6c(c5)n(C)c(=O)n6C5CCC(=O)NC5=O)C[C@@H]4C)cc3)c2n1 (stereo partly drawn) [Example 43] |
| 74% | 41 nM | 69 nM | 123 nM | CO[C@H](C)COc1cc(O[C@H]2CCNC2)c2cc(C3CC3)c(-c3c(C)c(F)cc4[nH]ncc34)c(OCc3ccc(C(=O)N4CCN(Cc5ccc6c(c5)n(C)c(=O)n6C5CCC(=O)NC5=O)C[C@@H]4C)cc3)c2n1 (stereo partly drawn) [Example 44] |
